Test results reported in ChEMBL document CHEMBL3763138, “Synthesis and bioactivity of novel triazole incorporated benzothiazinone derivatives as antitubercular and antioxidant agent” (Bioorg Med Chem Lett, 2016).
In brackets after ≈: the same amount, converted by molar mass.

Assays:
Conditions in all cases: ATCC 35743, 10 min
[1] = tested on: Mycobacterium tuberculosis variant bovis BCG; assay: Antitubercular activity against Mycobacterium bovis BCG ATCC 35743 at 30 ug/ml after 10 mins by NR assay; type: functional
[2] = tested on: Mycobacterium tuberculosis variant bovis BCG; assay: Antitubercular activity against Mycobacterium bovis BCG ATCC 35743 at 10 ug/ml after 10 mins by NR assay; type: functional
[3] = tested on: Mycobacterium tuberculosis variant bovis BCG; assay: Antitubercular activity against Mycobacterium bovis BCG ATCC 35743 at 3 ug/ml after 10 mins by NR assay; type: functional
[4] = tested on: Mycobacterium tuberculosis variant bovis BCG; assay: Antitubercular activity against Mycobacterium bovis BCG ATCC 35743 after 10 mins by NR assay; type: functional, organism-based

Structure (SMILES)	inhibition at 30 µg/mL [1] [%]	inhibition at 10 µg/mL [2] [%]	inhibition at 3 µg/mL [3] [%]	IC50 [4] [µg/mL]	MIC [4] [µg/mL]
O=C1CSc2ccccc2N1Cc1cn(-c2cccc([N+](=O)[O-])c2)nn1	26.6	31.3	39.3	> 30	> 30
O=C1CSc2ccccc2N1Cc1cn(Cc2cccc([N+](=O)[O-])c2)nn1	88.5	62.2	36.1	6.89 (≈ 18.1 µM)	> 30
O=C1CSc2ccccc2N1Cc1cn(Cc2ccc([N+](=O)[O-])cc2)nn1	91.1	59.2	28.3	7.89 (≈ 20.7 µM)	29.4 (≈ 77 µM)
O=C1CSc2ccccc2N1Cc1cn(Cc2ccc(F)cc2)nn1	95.3	52.9	40.6	8.25 (≈ 23.3 µM)	27.5 (≈ 77.6 µM)
O=C1CSc2ccccc2N1Cc1cn(Cc2ccc(Cl)cc2)nn1	58.1	55.2	66.1	8.55 (≈ 23.1 µM)	> 30
O=C1CSc2ccccc2N1Cc1cn(-c2ccc([N+](=O)[O-])cc2)nn1	33.1	30.7	15.9	> 30	> 30
O=C1CSc2ccccc2N1Cc1cn(Cc2ccc(Br)cc2)nn1	43.9	35.3	58.8	> 30	> 30
O=C1CSc2ccccc2N1Cc1cn(Cc2ccccc2)nn1	74.3	26.8	1.1	19.8 (≈ 58.7 µM)	> 30
O=C1CSc2ccccc2N1Cc1cn(Cc2cccc(Cl)c2)nn1	95.5	16.4	3.3	18.6 (≈ 50.1 µM)	28.4 (≈ 76.7 µM)
O=C1CSc2ccccc2N1Cc1cn(Cc2ccccc2Cl)nn1	58	80.2	32	> 30	> 30
NNC(=O)c1ccncc1 [ISONIAZID]	–	–	–	0.0023 (≈ 0.0168 µM)	0.045 (≈ 0.328 µM)
CO[C@H]1/C=C/O[C@@]2(C)Oc3c(C)c(O)c4c(O)c(c(/C=N/N5CCN(C)CC5)c(O)c4c3C2=O)NC(=O)/C(C)=C\C=C\[C@H](C)[C@H](O)[C@@H](C)[C@@H](O)[C@@H](C)[C@H](OC(C)=O)[C@@H]1C [RIFAMPIN]	–	–	–	0.0016 (≈ 0.00194 µM)	0.041 (≈ 0.0498 µM)
